Experimental findings from paper PMC7497095, “Active Intermediates in Copper Nitrite Reductase Reactions Probed by a Cryotrapping‐Electron Paramagnetic Resonance Approach” (Angewandte Chemie (International Ed. in English), 2020) are described below.

The target of this assay is T1, AxNiR (Achromobacter xylosoxidans, UniProt O68601).
T1 construct: gene nir; two-domain copper nitrite reductase, homotrimer
The assay can be described thus: continuous-wave EPR of T2Cu; cryoreduction-EPR with annealing. It counts as binding. The note with it: oxidized enzyme; T2Cu active site; EPR at 20 K.

The structures appear in SMILES notation.

T1 sequence (O68601 entry or part of it): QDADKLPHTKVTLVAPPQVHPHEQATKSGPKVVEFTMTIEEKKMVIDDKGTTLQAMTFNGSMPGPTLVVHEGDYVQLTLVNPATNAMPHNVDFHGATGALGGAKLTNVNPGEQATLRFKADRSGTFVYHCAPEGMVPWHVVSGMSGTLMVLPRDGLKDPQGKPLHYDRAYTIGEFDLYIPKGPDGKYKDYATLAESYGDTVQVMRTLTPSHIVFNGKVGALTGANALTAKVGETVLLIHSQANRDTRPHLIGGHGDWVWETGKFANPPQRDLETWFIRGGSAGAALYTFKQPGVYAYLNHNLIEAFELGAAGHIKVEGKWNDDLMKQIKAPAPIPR

For `O=NO` [nitrite], the “continuous-wave EPR of T2Cu; cryoreduction-EPR with annealing” value is “This is indicative of the nitrite being bound to the catalytic T2Cu site”.
